Measured values published in US7122668B2, “Platinum complexes and their use in therapy” (priority 2002, dated 2006).

What was measured:
C-26 cells [1] = assay type: cell-based; settings: cell lines of Table 1
Experimental: A human ovarian carcinoma cell line (OV-1063), established at the Hadassah University hospital and human colon carcinoma cell line (C-26) were maintained in RPMI-1640 medium supplemented with 10% FCS, antibiotics and glutamine. All culture medium components were purchased from Biological Industries (Beit-HaEmek, Israel). Both cell lines were maintained at 37° C. in a water-jacketed CO2 incubator.
Cytotoxicity of the synthesized complexes was tested by the methylene blue (MB) staining assay^(19). A fixed number of exponentially growing cells in 200 μl medium were plated in 96-microwell, flat-bottomed plates. For each of the complexes tested, 4 well were used. Following 24 hr in culture, 20 μl of different concentration of the complexes were added to each well containing untreated cells. Normal saline was added to the controls. Cells were exposed to complexes for 4, 24, or 72 hr. At the end of exposure for a fixed time interval, the treated cells as well as parallel control cells were washed and incubation was continued in fresh medium until termination of the experiment. Following 72 hr of growth, cells were fixed by adding 50 μl of 2.5% of glutaraldehyde to each well for 15 min. Fixed cells were rinsed 10 times with fresh de-ionized water and once with borate buffer (0.1 M, pH=8.5), dried and stained with MB (100 μl of 1% solution in 0.1 M borate buffer, pH=8.5) for 1 hr at room temperature. Stained cells were rinsed thoroughly with de-ionized water to remove any non-cell-bound die and then dried. The MB bound to the fixed cells was extracted by incubation at 37° C. with 200 μl of 0.1N HCl for 1 hr, and the net optical density (OD) of the die in each well was determined by a plate spectrophotometer (Labsystems Multyskan BICHROMATIC, Finland) at 620 nm.

C-26 cells [2] = assay: Platinum complex intracellular accumulation (FAAS); assay type: cell-based, human; settings: C-26, 24 hr
Experimental: (§1) Cells were seeded for 48 hr before one of the complexes was added to the culture medium. After 24 hr of exposure, the complexes were removed and the cells washed twice with ice-cold PBS and pelleted. The cells (1*10^6) were dried and mineralized by heating for 10 min in 65% HNO3 (BDH, England)^(22). Samples were dissolved in de-ionized water and each sample was measured at two different dilutions by flameless Zeeman atomic absorption spectrometer (FAAS). The calibration curves included 5 standards of K2PtCl4 stock solution with concentrations ranging from 50 to 250 ng platinum per ml. Platinum content was expressed as picomoles platinum per 1*10^6 cells.
(§2) The Pt content associated with the cells was measured by Atomic Absorption Spectroscopy (AAS).

OV-1063 cells = assay: Platinum complex intracellular accumulation (FAAS); assay type: cell-based, human; settings: OV-1063, 24 hr
Experimental: as §1, §2

plasmid pS16-hGH DNA = assay: Determination of Pt-DNA adducts by EtBr fluorescence; assay type: binding; settings: DNA modified 24 hr
Experimental: A plasmid (4.8 kbp) containing a gene coding for human growth hormone, plasmid pS16-hGH, was prepared as previously described^(23). The freshly prepared DNA was analyzed by agarose gel (1%) electrophoresis using post-staining with SYBR Green I fluorescent dye (Molecular Probes, Eugene, Oreg.). […] The ratio of absorbance at 260 nm to that at 280 nm was always between 1.8 and 1.9.
DNA were modified by the platinum complexes in 10 mM NaClO4 (pH 7.0) at 37° C. in the dark for 24 hr. Measurements of EtBr fluorescence were performed on an LS50B luminescence spectrometer (Perkin Elmer, Norwalk, Conn.). Fluorescence measurements of DNA modified by platinum in the presence of EtBr were performed using the excitation wavelength of 546 nm (slit 10 run) and emission wavelength of 590 nm (slit 10 nm) at 25° C. The concentrations were 0.01 mg/ml for DNA and 0.04 mg/ml for EtBr, which corresponded to the saturation of all intercalation sites of EtBr in DNA.
EtBr, as the fluorescent probe, was used to distinguish between perturbations induced in DNA by adducts of platinum (II) compounds^(14). Binding of EtBr by intercalation is blocked in a stoichiometric manner by formation of the bifunctional adducts, as of Cis-Pt, which results in a loss of fluorescence intensity. On the other hand, formation of monofunctional adducts results only in a slight decrease of EtBr fluorescence.

In the case of `C1CCNCC1.Cc1ccncc1.[Cl][Pt][Cl]` [Complex 5, trans-[PtCl2(4-picoline)(piperidine)]], the “folds less active than cisplatin” value (C-26 cells [1]) is reported as 3 folds, the Penetration to cells (C-26 cells [2]) is reported as 14974 pmol Pt/1 * 10^6 cells and the Penetration to cells (OV-1063 cells) is reported as 2092 pmol Pt/1 * 10^6 cells. The “decrease of EtBr fluorescence intensity by DNA adducts” value (plasmid pS16-hGH DNA) was “lower than that of cisplatin, however, greater than that of transplatin”.
